Assay results reported in the CheMixHub viscosity set.

Assay: xn = mol fraction of the nth substance listed

O=CN1CCOCC1 + Cc1ccc(C)cc1
viscosity [mPa·s]
Conditions | 298.15 K | 303.15 K | 313.15 K | 323.15 K
101 kPa, x2 = 0.1 | 5.473 | 4.774 | 3.78 | 3.059
101 kPa, x2 = 0.2 | 3.996 | 3.557 | 2.865 | 2.378
101 kPa, x2 = 0.3 | 3.008 | 2.716 | 2.243 | 1.893
101 kPa, x2 = 0.4 | 2.311 | 2.107 | 1.782 | 1.528
101 kPa, x2 = 0.5 | 1.837 | 1.7 | 1.443 | 1.263
101 kPa, x2 = 0.6 | 1.38 | 1.295 | 1.098 | 0.944
101 kPa, x2 = 0.7 | 1.099 | 1.018 | 0.8763 | 0.7736
101 kPa, x2 = 0.8 | 0.8844 | 0.824 | 0.7219 | 0.6357
101 kPa, x2 = 0.9 | 0.731 | 0.6863 | 0.6047 | 0.5387
101.3 kPa, x2 = 0.02757 | 6.848 | – | – | –
101.3 kPa, x2 = 0.05782 | 6.12 | – | – | –
101.3 kPa, x2 = 0.09608 | 5.439 | – | – | –
101.3 kPa, x2 = 0.1653 | 4.378 | – | – | –
101.3 kPa, x2 = 0.2769 | 3.14 | – | – | –
101.3 kPa, x2 = 0.355 | 2.505 | – | – | –
101.3 kPa, x2 = 0.4708 | 1.842 | – | – | –
101.3 kPa, x2 = 0.5471 | 1.542 | – | – | –
101.3 kPa, x2 = 0.6377 | 1.231 | – | – | –
101.3 kPa, x2 = 0.6871 | 1.093 | – | – | –
101.3 kPa, x2 = 0.7745 | 0.899 | – | – | –
101.3 kPa, x2 = 0.8554 | 0.772 | – | – | –
101.3 kPa, x2 = 0.9319 | 0.668 | – | – | –

O=CN1CCOCC1 + Cc1ccccc1C
viscosity [mPa·s]
Conditions | 298.15 K | 303.15 K | 313.15 K | 323.15 K
101 kPa, x2 = 0.1 | 5.936 | 5.18 | 4.063 | 3.294
101 kPa, x2 = 0.2 | 4.582 | 4.054 | 3.243 | 2.671
101 kPa, x2 = 0.3 | 3.602 | 3.231 | 2.627 | 2.194
101 kPa, x2 = 0.4 | 2.87 | 2.584 | 2.142 | 1.8
101 kPa, x2 = 0.5 | 2.233 | 2.034 | 1.71 | 1.467
101 kPa, x2 = 0.6 | 1.744 | 1.583 | 1.347 | 1.161
101 kPa, x2 = 0.7 | 1.385 | 1.271 | 1.08 | 0.9316
101 kPa, x2 = 0.8 | 1.122 | 1.034 | 0.8894 | 0.7789
101 kPa, x2 = 0.9 | 0.9104 | 0.8483 | 0.7328 | 0.6556
101.3 kPa, x2 = 0.05737 | 6.316 | – | – | –
101.3 kPa, x2 = 0.1297 | 4.989 | – | – | –
101.3 kPa, x2 = 0.2312 | 3.617 | – | – | –
101.3 kPa, x2 = 0.5161 | 1.652 | – | – | –
101.3 kPa, x2 = 0.5998 | 1.343 | – | – | –
101.3 kPa, x2 = 0.6877 | 1.088 | – | – | –
101.3 kPa, x2 = 0.7767 | 0.908 | – | – | –
101.3 kPa, x2 = 0.9523 | 0.635 | – | – | –

O=CN1CCOCC1 + c1ccccc1
298.15 K, 101.3 kPa
Conditions | viscosity [mPa·s]
x2 = 0.03787 | 6.858
x2 = 0.07912 | 6.137
x2 = 0.1309 | 5.329
x2 = 0.22 | 4.199
x2 = 0.3483 | 2.992
x2 = 0.4314 | 2.381
x2 = 0.5526 | 1.734
x2 = 0.6351 | 1.413
x2 = 0.7176 | 1.157
x2 = 0.7536 | 1.058
x2 = 0.83 | 0.88
x2 = 0.894 | 0.767
x2 = 0.9506 | 0.671

S=C=S + ClC(Cl)(Cl)Cl
101 kPa
Conditions | viscosity [mPa·s]
293.15 K, x1 = 0.223 | 0.74
293.15 K, x1 = 0.526 | 0.52
293.15 K, x1 = 0.628 | 0.47
293.15 K, x1 = 0.718 | 0.43
293.15 K, x1 = 0.794 | 0.41
293.15 K, x1 = 0.85 | 0.39
293.15 K, x1 = 0.914 | 0.38
298.15 K, x1 = 0.1 | 0.7919
298.15 K, x1 = 0.2 | 0.7079
298.15 K, x1 = 0.3 | 0.6441
298.15 K, x1 = 0.4 | 0.591
298.15 K, x1 = 0.5 | 0.5423
298.15 K, x1 = 0.6 | 0.4948
298.15 K, x1 = 0.7 | 0.4484
298.15 K, x1 = 0.8 | 0.4061
298.15 K, x1 = 0.9 | 0.3741

CC(C)NC(C)C + CNC(C)=O
308.15 K, 101 kPa
Conditions | viscosity [mPa·s]
x2 = 0.0739 | 0.3617
x2 = 0.2151 | 0.5132
x2 = 0.3226 | 0.7392
x2 = 0.4754 | 1.069
x2 = 0.6497 | 1.625
x2 = 0.786 | 2.167
x2 = 0.8761 | 2.652
x2 = 0.9277 | 2.973
x2 = 0.9762 | 3.194

O=[N+]([O-])c1cccc(O)c1 + CCCCCOC(C)=O
Conditions | viscosity [mPa·s]
298.15 K, 101 kPa, x1 = 0.5 | 1.449

OCCO + CO
Conditions | viscosity [mPa·s]
293.15 K, 101.33 kPa, x1 = 0.0476 | 0.724
293.15 K, 101.33 kPa, x1 = 0.0598 | 0.766
293.15 K, 101.33 kPa, x1 = 0.0918 | 0.914
293.15 K, 101.33 kPa, x1 = 0.1023 | 0.918
293.15 K, 101.33 kPa, x1 = 0.1742 | 1.243
293.15 K, 101.33 kPa, x1 = 0.2098 | 1.409
293.15 K, 101.33 kPa, x1 = 0.3191 | 2.142
293.15 K, 101.33 kPa, x1 = 0.3538 | 2.413
293.15 K, 101.33 kPa, x1 = 0.4072 | 2.906
293.15 K, 101.33 kPa, x1 = 0.4225 | 3.085
293.15 K, 101.33 kPa, x1 = 0.4474 | 3.338
293.15 K, 101.33 kPa, x1 = 0.4889 | 3.824
293.15 K, 101.33 kPa, x1 = 0.5955 | 5.485
293.15 K, 101.33 kPa, x1 = 0.6932 | 7.481
293.15 K, 101.33 kPa, x1 = 0.836 | 11.43
293.15 K, 101.33 kPa, x1 = 0.859 | 12.3
298.15 K, 101 kPa, x1 = 0.1 | 0.8363
298.15 K, 101 kPa, x1 = 0.2 | 1.245
298.15 K, 101 kPa, x1 = 0.2969 | 1.998
298.15 K, 101 kPa, x1 = 0.3 | 1.795
298.15 K, 101 kPa, x1 = 0.34 | 2.045
298.15 K, 101 kPa, x1 = 0.4 | 2.562
298.15 K, 101 kPa, x1 = 0.5 | 3.602
298.15 K, 101 kPa, x1 = 0.6 | 5.022
298.15 K, 101 kPa, x1 = 0.7 | 6.964
298.15 K, 101 kPa, x1 = 0.8 | 9.561
298.15 K, 101 kPa, x1 = 0.9 | 13.09
308.15 K, 101 kPa, x1 = 0.1 | 0.7007
308.15 K, 101 kPa, x1 = 0.2 | 1.011
308.15 K, 101 kPa, x1 = 0.2969 | 1.634
308.15 K, 101 kPa, x1 = 0.3 | 1.442
308.15 K, 101 kPa, x1 = 0.4 | 2.032
308.15 K, 101 kPa, x1 = 0.5 | 2.818
308.15 K, 101 kPa, x1 = 0.6 | 3.883
308.15 K, 101 kPa, x1 = 0.7 | 5.269
308.15 K, 101 kPa, x1 = 0.8 | 6.952
308.15 K, 101 kPa, x1 = 0.9 | 9.251
318.15 K, 101 kPa, x1 = 0.1 | 0.6194
318.15 K, 101 kPa, x1 = 0.2 | 0.8557
318.15 K, 101 kPa, x1 = 0.2969 | 1.36
318.15 K, 101 kPa, x1 = 0.3 | 1.172
318.15 K, 101 kPa, x1 = 0.4 | 1.59
318.15 K, 101 kPa, x1 = 0.5 | 2.134
318.15 K, 101 kPa, x1 = 0.6 | 2.844
318.15 K, 101 kPa, x1 = 0.7 | 3.783
318.15 K, 101 kPa, x1 = 0.8 | 4.96
318.15 K, 101 kPa, x1 = 0.9 | 6.432

CCCCCCCCCCCO + CCCCCCCCCO
viscosity [mPa·s]
Conditions | x2 = 0.116 | x2 = 0.3375 | x2 = 0.5442 | x2 = 0.7372 | x2 = 0.7995 | x2 = 0.9152
298.15 K, 101 kPa | – | – | – | – | 10.35 | –
298.15 K, 101.8 kPa | 13.57 | 12.52 | – | – | – | 9.874
308.15 K, 101.8 kPa | 9.384 | 8.667 | 8.041 | 7.476 | – | 6.965
318.15 K, 101.8 kPa | 6.631 | 6.157 | 5.752 | 5.366 | – | 5.017

CCCCCC(C)O (configuration not stated) + CCCCCCCCCCCC
298.15 K, 101 kPa
Conditions | viscosity [mPa·s]
x2 = 0.0554 | 4.35
x2 = 0.0998 | 3.85
x2 = 0.1555 | 3.3
x2 = 0.1998 | 2.92
x2 = 0.2554 | 2.51
x2 = 0.2998 | 2.23
x2 = 0.3554 | 1.94
x2 = 0.4 | 1.74
x2 = 0.4555 | 1.54
x2 = 0.4999 | 1.42
x2 = 0.5554 | 1.3
x2 = 0.5998 | 1.22
x2 = 0.6554 | 1.16
x2 = 0.6998 | 1.12
x2 = 0.7553 | 1.09
x2 = 0.7999 | 1.08
x2 = 0.8554 | 1.07
x2 = 0.8995 | 1.06
x2 = 0.9546 | 1.11

CC(O)CN(CC(C)O)CC(C)O (configuration not stated) + O
viscosity [mPa·s], 101 kPa
Conditions | 303.15 K | 313.15 K | 318.15 K
x1 = 0.005 | – | – | 0.7315
x1 = 0.03 | 2.395 | 1.775 | –

OCCO + CCCCO
298 K, 101.33 kPa
Conditions | viscosity [mPa·s]
x1 = 0.1527 | 3.18
x1 = 0.5229 | 6.05
x1 = 0.7115 | 8.75
x1 = 0.868 | 12.33

CCOC(=O)CC(C)=O + CCCCCCO
viscosity [mPa·s], 100 kPa
Conditions | x1 = 0.1053 | x1 = 0.1983 | x1 = 0.2962 | x1 = 0.3947 | x1 = 0.4947 | x1 = 0.5989 | x1 = 0.6989 | x1 = 0.7954 | x1 = 0.892
293.15 K | 3.828 | 3.026 | 2.545 | 2.245 | 2.034 | 1.867 | 1.749 | 1.688 | 1.655
298.15 K | 3.286 | 2.644 | 2.285 | 2.022 | 1.809 | 1.651 | 1.571 | 1.555 | 1.538
